Experimental data as given in US12655104B2, “Anticancer compounds selective for ER-positive cancers” (THE BOARD OF TRUSTEES OF THE UNIVERSITY OF ILLINOIS, priority 2020, dated 2026).
Where two headings read alike, the source gives them in different places.

Key:
[1] = Maximum tolerated dose (MTD) in rats; type: in vivo; conditions: Sprague Dawley, in vivo, iv; Rat, I.V., single dose; read-out: MTD
Description: (§1) Maximum Tolerated Dose (MTD) Experiments in Mice and Rats. […] Rodents were monitored for signs of distress, lethargy, neurotoxicity, and so forth for multiple days after compound administration. […] The MTD was defined as the maximum dose in which any acute side effects observed were tolerated and no lethality observed.

[2] = system: CD Sprague Dawley IGS rats; assay: Maximum tolerated dose (MTD) in rats; type: in vivo; conditions: Rat, I.V.
Description: as §1

HCT-116 = assay: Alamar blue fluorescence viability (IC50), HCT-116; type: cell-based; conditions: for IC50: Homo sapiens
Method: (§2) Cancer Cell Lines: Culturing Conditions and Validation. All cell lines were cultured at 37° C. with 5% CO2. All ERα-positive cell lines were grown in media lacking phenol red. MCF-7 were grown in EMEM with 10% FBS and 1% penicillin-streptomycin (P/S). T47D were cultured in MEM with 10% FBS and 1% P/S. TYS and TDG cells were grown in MEM supplemented with 10% CD-FBS and 1% P/S. HCT-116 and MDA-MB-231 cells were cultured in RPMI-1640 supplemented with 10% FBS and 1% P/S. MDA-MB-436 cells were cultured in DMEM supplemented with 10% FBS and 1% P/S. HT-29 were cultured in McCoy's media supplemented with 10% FBS and 1% P/S. All cell lines were used directly from ATCC stocks and/or have been further authenticated using PowerPlex16HS Assay (Promega) as described previously.^54 In short, >1 million cells were harvested and lysed using the cell lysis buffer (50 mM Tris, 50 mM EDTA, 25 mM sucrose, 100 mM NaCl, 1% SDS, pH 8). DNA extraction and short tandem repeats (STRs) profiling for each cell line were carried out at the University of Arizona Genetics Core (UAGC). Autosomal STR profiles were compared to reference databases such as ATCC, DSMZ, and JCRB.
(§3) Alamar Blue Fluorescence for Anticancer Activity (IC50). 2,000-15,000 cells per well were seeded a 96-well plate. Cells were allowed to adhere before DMSO stock solutions of test compounds were added to each well with a final concentration of DMSO in each well=1%; final volume: 100 μL. At the end of the desired incubation time (e.g., 24 or 72 hours), media in each well was aspirated and new fresh media (no compound, 100 μL) was added. Alamar blue solution (4 mg resazurin per 40 mL PBS) was then added (10 μL). After 2-6 hours incubation, each well's fluorescence (λexcit.=555 nm, λemission.=585 nm) was measured using a SpectraMax M3 plate reader (Molecular Devices). Percent dead was determined by comparison to a 100% dead control: 100 μM raptinal treated cells. Dose dependent curves and IC50 were calculated using Origin Pro V10.

[3] = Pharmacokinetic (PK) studies in mice; type: in vivo
Method: Pharmacokinetic (PK) Studies. […] Mice were then sacrificed in cohorts of 3 at time points (#, #, #). Blood was collected, centrifuged, and plasma separated for quantification of test compound utilizing LC-MS/MS (UIUC Metabolomics Center, Urbana, IL.). Determined compound concentration was then analyzed using non-linear regression programing (WinNonlin) and pharmacokinetic parameters estimated.

ERα− cancer cell lines = assay: Selectivity of cell killing, ERα+ versus ERα− cancer cell lines; type: cell-based
Method: as §2, §3

HT-29 = assay: Alamar blue fluorescence viability (IC50), HT-29; type: cell-based; conditions: for IC50: Homo sapiens
Method: as §2, §3

MDA-MB-231 = assay: Alamar blue fluorescence viability (IC50), MDA-MB-231; type: cell-based; conditions: for IC50: Homo sapiens
Method: as §2, §3

MCF-7 cells = assay: Alamar blue fluorescence viability (IC50), MCF-7; type: cell-based; conditions: Homo sapiens
Method: as §2, §3

[4] = female, CD-1, mouse, in vivo, iv, I.V. 20 mg/kg

## O=C1Nc2c(C(F)(F)F)cccc2[C@@]1(c1ccc(O)cc1)N1CCC(F)(F)CC1 (single isomer, unassigned) [ErSO-DFP]
[1]
  MTD: > 50 mg/kg
[2]
  Fold Increase Rel. to ErSO (MTD): 3.3-5
[2]; single dose
  MTD: >50 mg/kg
HCT-116; Average Fold Change between 24/72 hr IC50 values for MCF-7 and HCT-116
  Fold Change: 3235
HCT-116; HCT-116 cells, bottom of IC50 curve
  effects bottom out at (% cell death at lower concentrations): ~0%
HCT-116; HCT-116, 24 h, read-out: IC50 24 hr (μM)
  IC50: 55 µM
HCT-116; HCT-116, 72 h, read-out: IC50 72 hr (μM)
  IC50: 55 µM
[3]; I.V. 20 mg/kg
  AUC ratio ErSO-DFP:ErSO: 0.6
  CL ratio ErSO-DFP:ErSO: 1.6
  Cmax ratio ErSO-DFP:ErSO: 1.9
  MRT ratio ErSO-DFP:ErSO: 0.2
  Vss ratio ErSO-DFP:ErSO: 0.3
[3]; I.V., head-to-head
  AUC as % of the ErSO value: ~60%
[3]; [4]
  AUC: 6370 ng·h/mL
  Cmax: 14700 ng/mL
  MRT: 52.8 min
  clearance: 52 mL/min/kg
[3]; female, CD-1, mouse, in vivo, iv, I.V. 20 mg/kg, read-out: Vss
  Vd: 2.75 L/kg
[3]; female, CD-1, mouse, in vivo, po, read-out: oral availability F %
  bioavailability: 6%
ERα− cancer cell lines; measured at both 24 and 72 hours
  average fold difference between IC50 values of ERα+ and ERα− cancer cell lines: > 2750 fold
ERα− cancer cell lines; read-out: IC50 in ERα− cell lines
  IC50: > 25 µM
HT-29; Average Fold Change between 24/72 hr IC50 values for MCF-7 and HT-29
  Fold Change: 1588
HT-29; HT-29, 24 h, read-out: IC50 24 hr (μM)
  IC50: 33 ± 4 µM
HT-29; HT-29, 72 h, read-out: IC50 72 hr (μM)
  IC50: 27 ± 4 µM
MDA-MB-231; Average Fold Change between 24/72 hr IC50 values for MCF-7 and MDA-MB-231
  Fold Change: 1882
MDA-MB-231; MDA-MB-231, 24 h, read-out: IC50 24 hr (μM)
  IC50: 55 ± 5 µM
MDA-MB-231; MDA-MB-231, 72 h, read-out: IC50 72 hr (μM)
  IC50: 32 ± 4 µM
MCF-7 cells; MCF7, 24 h, read-out: IC50 24 hr (μM)
  IC50: 0.017 ± 0.002 µM
MCF-7 cells; MCF7, 72 h, read-out: IC50 72 hr (μM)
  IC50: 0.017 ± 0.001 µM
MCF-7 cells; MCF7, read-out: pIC50 (converted)
  IC50: 0.017 µM
